Data published in patent publication US5246932A, “Heterocyclic compounds” (Imperial Chemical Industries PLC, priority 1991, dated 1993).

What was measured:
[1] = test system: vasodilation response during twitch contraction of skeletal muscle; assay: Anaesthetised cat exercise hyperaemia test; assay type: in vivo; settings: 10 mg.kg^-1
Description: f) Anaesthetised cat exercise hyperaemia test
This test involves assessment of the effect of a test compound to antagonise the vasodilation response which occurs during twitch contraction of skeletal muscle. The vasodilation is mediated partly by the release of endogenous adenosine from the contracting skeletal muscle.
Cats (2.4-3.6 kg) are anaesthetised with sodium pentobarbitone (50 mg.kg^-1 ip). The following blood vessels are catheterized: left jugular vein (for infusion of anaesthetic, at approximately […] as a 6 mg.ml^-1 solution in isotonic saline), right external jugular vein (for administration of drugs and test compounds), right common carotid artery (for measurement of systemic arterial blood pressure and pulse rate) and right brachial artery (for withdrawal of blood).
Blood flow to the left hind limb is measured with an electromagnetic flow probe around the left external iliac artery. The whole of the left hind limb is made to contract at 3 Hz for 20 minutes duration by stimulating the sciatic and femoral nerves. Active tension produced by the extensor digitorum longus and peroneous longus muscles is measured isometrically with a force transducer. Exercise is repeated twice within the same animal, in either the absence or presence of the test compound. Test compounds are assessed for their ability to reduce the vasodilatation during skeletal muscle contraction.

[2] = target: adenosine receptor known as A2; assay: Guinea-pig Aortic Constriction Test; assay type: biochemical; settings: antagonism of adenosine relaxation of phenylephrine-constricted guinea-pig aortic ring
Description: (b) Guinea-pig Aortic Constriction Test
This test has been described by Collis et al. (British J. Pharmacology, 1989, 97, 1274-1278) and involves the assessment of the ability of a test compound to antagonise the attenuatory effect of adenosine on phenylephrine induced constriction of a guinea-pig aortic ring preparation, an effect mediated via the adenosine receptor known as A2.
The aortic ring preparation is obtained as follows:- Sections (3-5 mm) of guinea pig thoracic aorta (from Dunkin Hartley strain, 250-400 g males) are mounted in organ baths containing oxygenated Krebs solution (95% O2 : 5% CO2) at 37° C. [The nucleoside transport inhibitor, dipyridamole (10 μM) is present in the Krebs solution]. The isometric tension development is recorded and the tissue placed under a resting tension of 1 g and allowed to equilibrate for 1 hour. […] Adenosine is next added cumulatively (10^-7 M to 10^-3 M) and the evoked relaxation is measured. […]
Test compounds are assessed by plotting the percentage relaxation observed against the logarithm of the adenosine concentration, competitive adenosine antagonism producing a parallel shift in the standard adenosine concentration/relaxation (dose response) curve. […] The pA2 value, which is an estimate of the concentration of antagonist to give a dose ratio of 2, may also be calculated using a standard computation technique.

[3] = target: T1, adenosine receptor known as A1 (Cavia porcellus, UniProt P47745); assay: Guinea-pig Atrial Bradycardic Test; assay type: biochemical; settings: antagonism of 2-chloroadenosine bradycardia in beating guinea-pig atrial pair; read-out: pA2 (converted)
T1 construct: Atrial pairs are obtained from guinea-pigs (Dunkin Hartley strain); from tissue; host or cells: guinea-pig spontaneously beating atrial pairs (Dunkin Hartley)
T1 sequence (P47745 1-326): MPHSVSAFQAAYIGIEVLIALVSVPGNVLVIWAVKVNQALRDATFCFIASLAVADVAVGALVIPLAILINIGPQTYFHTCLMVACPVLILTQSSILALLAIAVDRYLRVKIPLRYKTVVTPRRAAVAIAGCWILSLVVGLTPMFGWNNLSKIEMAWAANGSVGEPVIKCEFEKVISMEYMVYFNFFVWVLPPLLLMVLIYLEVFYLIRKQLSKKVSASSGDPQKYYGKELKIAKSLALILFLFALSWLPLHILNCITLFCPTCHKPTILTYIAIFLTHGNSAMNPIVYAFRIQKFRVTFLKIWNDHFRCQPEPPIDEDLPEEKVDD
Description: (c) Guinea-pig Atrial Bradycardic Test
The atrial pair preparation may be obtained as follows: Atrial pairs are obtained from guinea-pigs (Dunkin Hartley strain, 250-400 g males) and mounted in organ baths containing oxygenated Krebs buffer solution (95% O2; 5% CO2) at 37° C. The spontaneously beating atria are then placed under a resting tension of 1 g and allowed to equilibrate for 50 minutes with continuous overflow. Overflow is then stopped and adenosine deaminase (1 Unit/ml) added to prevent the accumulation of endogenously produced adenosine. After equilibration for 15 minutes, a cumulative dose response curve to the adenosine mimetic, 2-chloroadenosine(10^-8 M to 10^-4 M) is administered to produce a maximal slowing of atrial rate. After washout during 30 minutes, adenosine deaminase is readministered to the bath which is allowed to equilibrate for 15 minutes. A 10^-5 M solution of the test compound in DMSO is then added to the bath which is left to incubate for 30 minutes. Any effect on the beating rate due to the test compound is noted before the dose response curve to 2-chloroadenosine is repeated. Compounds which are adenosine antagonists attenuate the 2-chloroadenosine response.
Test compounds are assessed by comparing dose response curves to 2-chloroadenosine alone with those obtained in the presence of the compound. […]

[4] = target: T2, A2 Adenosine receptor (Rattus norvegicus, UniProt P30543); assay: A2 Adenosine receptor affinity test ([3H]-NECA displacement, PC12 membranes); assay type: binding; settings: rat PC12 cell membranes, 30° C., 90 minutes
T2 construct: membrane preparations derived from the rat phaeochromocytoma cell line PC 12; host or cells: PC 12 (rat phaeochromocytoma) membranes
T2 sequence (P30543 whole entry): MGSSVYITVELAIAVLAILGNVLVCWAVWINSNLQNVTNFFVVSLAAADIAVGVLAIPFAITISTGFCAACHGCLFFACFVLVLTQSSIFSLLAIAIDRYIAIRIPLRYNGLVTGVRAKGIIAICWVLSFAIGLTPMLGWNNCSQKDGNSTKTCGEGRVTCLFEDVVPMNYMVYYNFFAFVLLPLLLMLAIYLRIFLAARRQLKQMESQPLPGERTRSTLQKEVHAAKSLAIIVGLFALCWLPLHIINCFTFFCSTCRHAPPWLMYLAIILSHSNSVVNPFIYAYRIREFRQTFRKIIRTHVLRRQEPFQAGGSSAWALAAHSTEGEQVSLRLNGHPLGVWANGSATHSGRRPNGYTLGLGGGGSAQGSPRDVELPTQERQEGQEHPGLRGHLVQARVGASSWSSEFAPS
Description: The separated cells are then suspended in hypotonic solution (distilled water), allowed to stand on ice for 30 minutes and are then carefully homogenized using a standard high-speed homogeniser with periodic ice-cooling to obtain a fine suspension. […] The mixture is then incubated at 37° C. After 20 minutes, the reaction is terminated by dilution with ice-cold buffer and transfer onto ice. The material obtained containing the cell membranes is recovered by centrifugation and washed by resuspension in buffer and recentrifugation. The pellet produced is then resuspended in ice-cold buffer using a hand-driven homogenizer. The resultant membrane suspension is frozen and stored under liquid nitrogen until required.
After incubation, the samples are rapidly filtered over glass-fibre mats and the filter mats are washed to remove non-receptor-bound radioligand. Receptor-bound radioligand entrapped on the filter mats is then determined by liquid scintillation counting. Filtration and washing are carried out using a conventional vacuum filtration cell harvester. The specific binding (defined as the difference between the total binding and the non-specific binding) in the presence of the particular test compound is determined and compared with the control value.

| Kb [3] | IC50 [4] | SMILES | inhibition of vasodilatation during skeletal muscle contraction [1] | pA2 [2] |
| --- | --- | --- | --- | --- |
|  |  | Cn1c(=O)c2[nH]cnc2n(C)c1=O [1,3-dimethylxanthine] | significant inhibition | about 5 |
| 1000 nM | ~0.794 nM | Nc1nc(NCCc2ccc(Oc3nc(N)n4nc(-c5ccco5)nc4n3)cc2)nc2nc(-c3ccco3)nn12 [Example 1, 7-amino-5-[4-(2-[7-amino-2-(2-furyl)-[1,2,4]triazolo[1,5-a][1,3,5]triazin-5-ylamino]ethyl)phenoxy]-2-(2-furyl)[1,2,4]triazolo[1,5-a][1,3,5]triazine] |  |  |
